In publication PMC7253177, “Gain of channel function and modified gating properties in TRPM3 mutants causing intellectual disability and epilepsy” (eLife, 2020):

Target: T1, WT human TRPM3 (Homo sapiens, UniProt Q9HCF6)
T1 construct: expressed in transfected cells; host or cells: HEK293T
T1 sequence (Q9HCF6 1-1325 isoform Q9HCF6-10): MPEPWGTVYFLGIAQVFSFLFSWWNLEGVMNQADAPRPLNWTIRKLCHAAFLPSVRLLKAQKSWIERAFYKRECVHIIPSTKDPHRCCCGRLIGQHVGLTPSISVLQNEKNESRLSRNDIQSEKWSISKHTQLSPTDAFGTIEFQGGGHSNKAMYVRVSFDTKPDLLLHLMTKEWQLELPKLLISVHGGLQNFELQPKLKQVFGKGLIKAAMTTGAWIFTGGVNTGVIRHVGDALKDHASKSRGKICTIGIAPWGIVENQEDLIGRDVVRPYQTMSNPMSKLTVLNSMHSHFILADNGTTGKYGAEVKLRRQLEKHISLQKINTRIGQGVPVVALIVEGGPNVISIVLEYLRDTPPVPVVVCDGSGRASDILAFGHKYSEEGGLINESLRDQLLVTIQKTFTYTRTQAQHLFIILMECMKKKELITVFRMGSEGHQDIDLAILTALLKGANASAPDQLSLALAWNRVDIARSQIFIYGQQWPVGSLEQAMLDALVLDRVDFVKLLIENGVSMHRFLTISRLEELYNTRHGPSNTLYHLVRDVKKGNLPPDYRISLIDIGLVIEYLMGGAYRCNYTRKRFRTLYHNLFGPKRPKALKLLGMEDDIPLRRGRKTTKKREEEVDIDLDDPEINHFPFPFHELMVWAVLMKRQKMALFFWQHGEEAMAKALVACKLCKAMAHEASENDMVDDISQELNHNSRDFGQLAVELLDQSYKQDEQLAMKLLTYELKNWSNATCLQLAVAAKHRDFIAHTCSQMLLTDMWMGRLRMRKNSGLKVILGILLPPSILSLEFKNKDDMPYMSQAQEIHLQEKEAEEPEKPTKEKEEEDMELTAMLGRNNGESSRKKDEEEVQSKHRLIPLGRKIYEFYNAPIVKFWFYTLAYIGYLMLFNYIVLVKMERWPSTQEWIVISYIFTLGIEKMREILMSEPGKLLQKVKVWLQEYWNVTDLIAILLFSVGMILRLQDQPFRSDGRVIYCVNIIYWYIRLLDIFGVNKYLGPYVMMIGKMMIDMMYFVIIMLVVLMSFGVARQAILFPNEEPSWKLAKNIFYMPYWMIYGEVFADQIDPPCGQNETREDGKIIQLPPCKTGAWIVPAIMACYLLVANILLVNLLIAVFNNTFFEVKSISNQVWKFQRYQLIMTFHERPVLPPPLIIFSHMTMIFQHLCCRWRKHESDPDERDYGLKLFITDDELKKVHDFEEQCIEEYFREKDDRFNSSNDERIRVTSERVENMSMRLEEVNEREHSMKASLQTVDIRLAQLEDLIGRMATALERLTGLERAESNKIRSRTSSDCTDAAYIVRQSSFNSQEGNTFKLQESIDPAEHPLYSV
Experiment: Whole-cell patch clamp, HEK293T cells expressing WT hTRPM3
Type: cell-based
Conditions: WT
Protocol: HEK293T cells ([Graham et al., 1977]) were cultured as described previously ([Vriens et al., 2007]) and used up in passage number 14. HEK293T cells were tested for the lack of mycoplasma and transiently transfected with 2 µg of DNA using TransIT transfection reagent (Mirus) 36–48 hr before the measurements. In case of co-cultures a ratio of 1:1 between hTRPM3-YFP WT and mutants-YFP DNA was used.
Standard whole-cell patch-clamp recordings were performed with an EPC-10 amplifier and the PatchMasterPro Software (HEKA Elektronik, Lambrecht, Germany). Current measurements were performed at a sampling rate of 20 kHz and currents were digitally filtered at 2.9 kHz. In all measurements, 70% of the series resistance was compensated. The standard internal solution contained (in mM): 100 CsAsp, 45 CsCl, 10 EGTA, 10 HEPES, 1 MgCl2 (pH 7.2 with CsOH) or 140 potassium gluconate, 5 EGTA, 1 MgCl2, 10 HEPES and 2 NaATP (pH 7.3 with CsOH) for the measurements of Gβγ mediated inhibition and the standard extracellular solution contained (in mM): 150 NaCl, 1 MgCl2, 10 HEPES (pH 7.4 with NaOH). The standard patch pipette resistance was between 2 MΩ and 4 MΩ when filled with pipette solution. In experiments allowing Ca^2+-dependent desensitization of TRPM3, Mg^2+ was replaced by Ca^2+ in the extracellular solution, and Cs^+ was replaced by Na^+ in the pipette solution. […] The chemical ligands were dissolved in bath solution from a stock diluted in DMSO.

Compound: Clc1ccccc1C(c1ccccc1)(c1ccccc1)n1ccnc1 [Clt, clotrimazole]
- Activation of whole-cell currents in the absence of PS (Clt 10 µM): did not activate currents by itself
- Effect on the response to PS (whole-cell currents) (Clt 10 µM, PS 40 µM): potentiated responses to PS

Compound: CCC1(c2ccccc2)C(=O)NCNC1=O [primidone]
- Inhibition of PS-activated inward and outward currents (primidone 25 µM, PS 40 µM, ±80 mV, cells co-expressing µ-opioid receptor): full inhibition

Compound: pregnenolone sulfate [PS]
- Activation of whole-cell currents (PS 40 µM): reversibly activated outwardly rectifying whole-cell currents
